From ChEMBL document CHEMBL1201862, “PubChem BioAssay data set” (2004)
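Compound exposure: 48 hours, 5 concentrations, 96-well plates. Abbreviation: GI50, concentration required for 50% inhibition of growth.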 Active and inactive are the calls of the source. Cut-off read from the data, not from the text of the source: active = GI50 up to about 1.1 µM and inactive = higher.

How the values were obtained:
Assay in all cases: growth of human tumour cells (NCI), 48 h
LOX IMVI = test system: LOX IMVI
KM-20L2 = test system: KM-20L2
SN12C = test system: SN12C
HCT-116 = test system: HCT-116
DLD-1 = test system: DLD-1
DMS-273 = test system: DMS-273
SF-539 = test system: SF-539
MCF7 = test system: MCF7
HCT-15 = test system: HCT-15
OVCAR-8 = test system: OVCAR-8
HT-29 = test system: HT-29
KM12 = test system: KM12
SW-620 = test system: SW-620
XF498 = test system: XF498
A498 = test system: A498
SF-268 = test system: SF-268
OVCAR-4 = test system: OVCAR-4
SK-MEL-2 = test system: SK-MEL-2
OVCAR-5 = test system: OVCAR-5
HCC 2998 = test system: HCC 2998
SK-OV-3 = test system: SK-OV-3
DMS-114 = test system: DMS-114
UACC-62 = test system: UACC-62
SK-MEL-5 = test system: SK-MEL-5
UO-31 = test system: UO-31
IGROV-1 = test system: IGROV-1
A549 = test system: A549
NCI-H23 = test system: NCI-H23
Malme-3M = test system: Malme-3M
SNB-19 = test system: SNB-19
RXF 393 = test system: RXF 393
RPMI-8226 = test system: RPMI-8226
OVCAR-3 = test system: OVCAR-3
COLO 205 = test system: COLO 205
SNB-75 = test system: SNB-75
SF-295 = test system: SF-295
HOP-62 = test system: HOP-62
NCI-H460 = test system: NCI-H460
SK-MEL-28 = test system: SK-MEL-28
K562 = test system: K562
SNB-78 = test system: SNB-78
U-251 = test system: U-251
UACC-257 = test system: UACC-257
MOLT-4 = test system: MOLT-4
HOP-18 = test system: HOP-18
NCI-H226 = test system: NCI-H226
CCRF-CEM = test system: CCRF-CEM
HL-60 = test system: HL-60
NCI/ADR-RES = test system: NCI/ADR-RES
M19-MEL = test system: M19-MEL
EKVX = test system: EKVX
NCI-H522 = test system: NCI-H522
CAKI-1 = test system: CAKI-1
HOP-92 = test system: HOP-92

CCOCCOc1ccc(OCCOCC)cc1
GI50 (LOX IMVI): 17.9 µM (inactive)
GI50 (KM-20L2): 26.2 µM (inactive)
GI50 (SN12C): 16.8 µM (inactive)
GI50 (HCT-116): 17.2 µM (inactive)
GI50 (DLD-1): 10.1 µM (inactive)
GI50 (DMS-273): 21.6 µM (inactive)
GI50 (SF-539): > 10 µM (inactive)
GI50 (MCF7): 14 µM (inactive)
GI50 (HCT-15): 16.9 µM
GI50 (OVCAR-8): 16.6 µM (inactive)
GI50 (HT-29): 16.9 µM (inactive)
GI50 (KM12): 31.5 µM (inactive)
GI50 (SW-620): 19.2 µM (inactive)
GI50 (XF498): 16.4 µM (inactive)
GI50 (A498): 36.3 µM (inactive)
GI50 (SF-268): 17 µM (inactive)
GI50 (OVCAR-4): 6.04 µM (inactive)
GI50 (SK-MEL-2): > 43 µM (inactive)
GI50 (OVCAR-5): > 100 µM (inactive)
GI50 (HCC 2998): 37.3 µM (inactive)
GI50 (SK-OV-3): > 81.8 µM (inactive)
GI50 (DMS-114): 4.51 µM (inactive)
GI50 (UACC-62): 19 µM (inactive)
GI50 (SK-MEL-5): 22.4 µM (inactive)
GI50 (UO-31): 13.6 µM (inactive)
GI50 (IGROV-1): 20 µM (inactive)
GI50 (A549): 37.6 µM (inactive)
GI50 (NCI-H23): 29.9 µM (inactive)
GI50 (Malme-3M): 13.4 µM (inactive)
GI50 (SNB-19): > 100 µM (inactive)
GI50 (RXF 393): 18.1 µM (inactive)
GI50 (RPMI-8226): 3.51 µM (inactive)
GI50 (OVCAR-3): 30.1 µM (inactive)
GI50 (COLO 205): 15.9 µM (inactive)
GI50 (SNB-75): 18.8 µM (inactive)
GI50 (SF-295): 25.4 µM (inactive)
GI50 (HOP-62): > 100 µM (inactive)
GI50 (NCI-H460): 29.5 µM (inactive)
GI50 (SK-MEL-28): 20.3 µM (inactive)
GI50 (K562): 7.91 µM (inactive)
GI50 (SNB-78): > 42.7 µM (inactive)
GI50 (U-251): 34 µM (inactive)
GI50 (UACC-257): 17.5 µM (inactive)
GI50 (MOLT-4): 7.71 µM (inactive)
GI50 (HOP-18): 10.7 µM (inactive)
GI50 (NCI-H226): 31.9 µM (inactive)
GI50 (CCRF-CEM): 2.74 µM (inactive)
GI50 (HL-60): 3.4 µM (inactive)
GI50 (NCI/ADR-RES): 16.4 µM (inactive)
GI50 (M19-MEL): 26 µM (inactive)

CC(C)=CC(=O)OC1C2C(C)=CC(O)C(O)C2(C)C2C3(O)OCC24C(CC(=O)OC14)C(C)C3O (centres undefined)
GI50 (LOX IMVI): 0.0371 µM (active)
GI50 (KM-20L2): 0.354 µM (active)
GI50 (SN12C): 0.386 µM (active)
GI50 (HCT-116): 0.0361 µM (active)
GI50 (DLD-1): 0.0716 µM (active)
GI50 (EKVX): 0.143 µM (active)
GI50 (DMS-273): 0.0264 µM (active)
GI50 (SF-539): 0.0466 µM (active)
GI50 (MCF7): 0.0269 µM (active)
GI50 (HCT-15): 0.476 µM
GI50 (OVCAR-8): 0.166 µM (active)
GI50 (HT-29): 0.137 µM (active)
GI50 (KM12): 0.0791 µM (active)
GI50 (SW-620): 0.162 µM (active)
GI50 (XF498): 0.122 µM (active)
GI50 (A498): 1.51 µM (inactive)
GI50 (NCI-H522): 0.0298 µM (active)
GI50 (SF-268): 0.182 µM (active)
GI50 (OVCAR-4): 0.0647 µM (active)
GI50 (SK-MEL-2): 0.173 µM (active)
GI50 (OVCAR-5): 0.802 µM (active)
GI50 (HCC 2998): 0.101 µM (active)
GI50 (SK-OV-3): 3.13 µM (inactive)
GI50 (DMS-114): 0.0162 µM (active)
GI50 (UACC-62): 0.0649 µM (active)
GI50 (CAKI-1): 2.93 µM (inactive)
GI50 (SK-MEL-5): 0.0252 µM (active)
GI50 (UO-31): 2.32 µM (inactive)
GI50 (IGROV-1): 0.0581 µM (active)
GI50 (A549): 1.16 µM (inactive)
GI50 (NCI-H23): 0.0611 µM (active)
GI50 (Malme-3M): 0.0286 µM (active)
GI50 (SNB-19): 0.14 µM (active)
GI50 (RXF 393): 0.183 µM (active)
GI50 (RPMI-8226): 0.0346 µM (active)
GI50 (OVCAR-3): 0.0339 µM (active)
GI50 (COLO 205): 0.778 µM (active)
GI50 (SNB-75): 0.111 µM (active)
GI50 (SF-295): 0.28 µM (active)
GI50 (HOP-62): 0.168 µM (active)
GI50 (NCI-H460): 0.0596 µM (active)
GI50 (SK-MEL-28): 0.0362 µM (active)
GI50 (K562): 0.0378 µM (active)
GI50 (SNB-78): 0.272 µM (active)
GI50 (U-251): 0.0519 µM (active)
GI50 (UACC-257): 0.104 µM (active)
GI50 (MOLT-4): 0.0225 µM (active)
GI50 (HOP-18): 1.11 µM (active)
GI50 (HOP-92): 0.0552 µM (active)
GI50 (NCI-H226): 0.106 µM (active)
GI50 (CCRF-CEM): 0.0462 µM (active)
GI50 (HL-60): 0.0251 µM (active)
GI50 (NCI/ADR-RES): 17.5 µM (inactive)
GI50 (M19-MEL): 0.034 µM (active)
